Experiments:
CCL11 (Eotaxin-1) = target: T1, CCL11 (Eotaxin-1) (Homo sapiens, UniProt P51671); experiment: isothermal titration calorimetry; type: binding
T1 construct: mature wild-type CCL11; monomer mass about 8360 Da from m/z; monomer-dimer-tetramer mixture

CCL2 = target: T2, CCL2 (Homo sapiens, UniProt P13500); experiment: isothermal titration calorimetry; type: binding
T2 construct: construct and preparation not described in the main text; monomer-dimer, tetramer with saturating GAG
T2 sequence (P13500 24-99): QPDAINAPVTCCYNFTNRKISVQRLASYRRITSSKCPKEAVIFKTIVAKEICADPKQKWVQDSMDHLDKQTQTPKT

T1 sequence (P51671 24-97): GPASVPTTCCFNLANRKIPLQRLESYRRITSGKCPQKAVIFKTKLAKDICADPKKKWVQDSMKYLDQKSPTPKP

SMILES: CO[C@H]1O[C@H](COS(=O)(=O)O)[C@@H](O[C@@H]2O[C@@H](C(=O)O)[C@@H](O[C@H]3O[C@H](COS(=O)(=O)O)[C@@H](O[C@@H]4O[C@H](C(=O)O)[C@@H](O[C@H]5O[C@H](COS(=O)(=O)O)[C@@H](O)[C@H](O)[C@H]5NS(=O)(=O)O)[C@H](O)[C@H]4O)[C@H](OS(=O)(=O)O)[C@H]3NS(=O)(=O)O)[C@H](O)[C@H]2OS(=O)(=O)O)[C@H](O)[C@H]1NS(=O)(=O)O [Arixtra]
- Kd (CCL11 (Eotaxin-1)): 2710 ± 284 nM
- Kd (CCL2): 7.98 ± 0.77 µM
